Measurements reported in US8993606B2, “Oral formulations for treating metal overload” (FerroKin BioSciences, Inc., priority 2011, dated 2015).
Where a name gives a salt, the structure may show the parent alone.

Experiments:
Type in all cases: physicochemical
[1] = Slurry experiments of magnesium salt form A, XRPD result; design: key: IS stands for insufficient solid
Text: The results of slurry experiments of (S)-3′-(OH)-DADFT-PE magnesium salt form A are given below in Table 36, wherein d stands for day, and IS stands for insufficient solid.

[2] = Solvent grinding experiments of magnesium salt form A, XRPD result; conditions: solvent printed as — (none)
Text: The results of solvent grinding experiments of (S)-3′-(OH)-DADFT-PE magnesium salt form A are given below in Table 39, wherein LC stands for low crystallinity.

[3] = Vapor stress experiments of amorphous magnesium salt, XRPD result; design: key: IS stands for insufficient solid
Text: The results of vapor stress experiments of amorphous (S)-3′-(OH)-DADFT-PE magnesium salt are given below in Table 37, wherein LC stands for low crystallinity and IS stands for insufficient solid.

[4] = Vapor diffusion experiments of amorphous magnesium salt, XRPD result; conditions: antisolvent Hexanes
Text: The results of vapor diffusion experiments of amorphous (S)-3′-(OH)-DADFT-PE magnesium salt are given below in Table 38, wherein LC stands for low crystallinity.

[5] = Aqueous solubility of salts; conditions: tromethamine salt; read-out: aqueous solubility
Text: Typically, oral formulations described herein facilitate solubilizing an active ingredient (e.g., a desazadesferrithiocin analog, salt or polymorph) at a desired amount or rate suitable for the treatment of metal overload. As used herein, the term “solubility” is generally intended to be synonymous with the term “aqueous solubility,” and refers to the ability, and the degree of the ability, of a compound to dissolve in water or an aqueous solvent or buffer, as might be found under physiological conditions. Aqueous solubility is, in and of itself, a useful quantitative measure, but it has additional utility as a correlate and predictor, with some limitations which will be clear to those of skill in the art, of oral bioavailability. Typically, a soluble compound is generally desirable, and the more soluble, the better. In liquid formulations, solubility is typically reported in mg/mL, but other measures, such as g/g, may be used. Solubilities typically deemed acceptable may range from 1 mg/mL into the hundreds or thousands of mg/mL.
Solubility may be measured under varying conditions. For example, it may be measured under conditions similar to those found in the body, such as at gastric pH or at physiologic or near-physiologic pH. “Gastric pH” as used herein means about pH 1. […]

[6] = Relative humidity stress (deliquescence, hygroscopicity); conditions: ~75% RH stress
[7] = Dynamic vapor sorption/desorption (DVS)
Text: As described above, Form D was obtained via DVS experimentation with Form B, and Form B was generated with crystallization experiments using solvent mixtures containing methanol or water (e.g., MeOH/acetone, IPA/MeOH, heptane/MeOH, water (solvent grinding), water (antisolvent precipitation), or water (slurry at ambient)). DVS experimentation with Form B is as follows: Dynamic vapor sorption/desorption (DVS) data were collected on a VTI SGA-100 Vapor Sorption Analyzer. Sorption and desorption data were collected over a range of 5% to 95% relative humidity (RH) at 10% RH intervals under a nitrogen purge. Samples were not dried prior to analysis. Equilibrium criteria used for analysis were less than 0.0100% weight change in 5 minutes, with a maximum equilibration time of 3 hours if the weight criterion was not met. Data were not corrected for the initial moisture content of the sample. Sodium chloride and polyvinylpyrrolidine were used as calibration standards.

COCCOCCOCCOc1cccc(C2=N[C@@](C)(C(=O)[O-])CS2)c1O.COCCOCCOCCOc1cccc(C2=N[C@@](C)(C(=O)[O-])CS2)c1O.[Mg+2] [listing 1 of 2 here]
XRPD Result ([1]; solvent ACN/THF (1:1), 60° C./4 d): A + peaks | XRPD Result ([1]; solvent EtOH/H2O (1:1), Ambient): IS | XRPD Result ([1]; solvent EtOH/H2O (1:9), Ambient): IS | XRPD Result ([1]; solvent Heptane/DCM (2:8), Ambient): A (LC) | XRPD Result ([1]; solvent Heptane/EtOH (2:8), Ambient): Amorphous | XRPD Result ([1]; solvent IPA, 60° C./4 d): Amorphous | XRPD Result ([1]; solvent IPA/Acetone (1:1), Ambient): IS | XRPD Result ([1]; solvent Water, 60° C./1 d): Amorphous | XRPD Result [2]: A (LC)

COCCOCCOCCOc1cccc(C2=N[C@@](C)(C(=O)[O-])CS2)c1O.COCCOCCOCCOc1cccc(C2=N[C@@](C)(C(=O)[O-])CS2)c1O.[Mg+2] [listing 2 of 2 here]
XRPD Result ([3]; solvent 1,4-Dioxane): IS | XRPD Result ([3]; solvent Acetone): A (LC) | XRPD Result ([3]; solvent DCM): IS | XRPD Result ([3]; solvent EtOAc): IS | XRPD Result ([3]; solvent MEK): IS | XRPD Result ([4]; solvent Acetone): A (LC) | XRPD Result ([4]; solvent DCM): A (LC) | XRPD Result ([4]; solvent EtOAc): A (LC) | XRPD Result ([4]; solvent MEK): Amorphous | XRPD Result ([4]; solvent THF): A (LC) | XRPD Result ([4]; solvent Toluene): A (LC)

COCCOCCOCCOc1ccc(C2=N[C@@](C)(C(=O)O)CS2)c(O)c1 [Compound 2, Tromethamine salt of (S)-4′-(OH)-DADFT-PE]
solubility [5]: > 124 mg/mL | deliquescence upon RH stress [6]: no apparent deliquescence | weight gained ([7]; above ~65% RH): ~50.3 wt % | water uptake ([7]; below ~65% RH): ~1.5 wt %

COCCOCCOCCOc1cccc(C2=N[C@@](C)(C(=O)O)CS2)c1O [Form B, (S)-3′-(OH)-DADFT-PE magnesium salt form B]
hygroscopicity (DVS data) [7]: hygroscopic | weight loss upon desorption [7]: 26.6% | additional weight gain during sorption step ([7]; above 65% RH, without reaching equilibrium weight): 21.2% | weight loss upon equilibrium ([7]; at 5% RH): 10.8% | weight gain during sorption step ([7]; from 5% to 65% RH): 5.7%
